Results reported in ChEMBL document CHEMBL1201862, “PubChem BioAssay data set” (2004).
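Briefly, cells in 96-well plates were exposed to five compound concentrations for 48 h, and endpoints were estimated by linear interpolation. The concentration for 50% growth inhibition is given as GI50.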 Calls of active or inactive are those of the source. No stated cut-off is given here; in the data, active = GI50 up to about 1.1 µM and inactive = higher.

What was measured:
Assay in all cases: inhibition of tumour cell growth, NCI panel, 48 h
[1] = system: 786-0
[2] = system: ACHN
[3] = system: CCRF-CEM
[4] = system: DU-145
[5] = system: HOP-62
[6] = system: HOP-92
[7] = system: HT-29
[8] = system: LOX IMVI
[9] = system: M14
[10] = system: NCI-H460
[11] = system: OVCAR-5
[12] = system: OVCAR-8
[13] = system: RPMI-8226
[14] = system: RXF 393
[15] = system: SK-MEL-28
[16] = system: SK-MEL-5
[17] = system: SK-OV-3
[18] = system: SW-620
[19] = system: TK-10

Measured: GI50

CC(C)(C)OC(=O)N(O)CCCn1cnc2c(NC3CC3)ncnc21
inactive: [1] > 100 µM | [2] > 100 µM | [3] > 100 µM | [4] > 100 µM | [5] > 100 µM | [6] > 100 µM | [7] > 100 µM | [8] > 100 µM | [9] > 100 µM | [10] > 100 µM | [11] > 100 µM | [12] > 100 µM | [13] > 100 µM | [14] > 100 µM | [15] > 100 µM | [16] > 100 µM | [17] > 100 µM | [18] > 100 µM | [19] > 100 µM

Cc1ccc(C2SC(=N)Nc3c2c(C)nn3C(=O)c2ccc(Cl)cc2)cc1 (centres undefined)
inactive: [1] > 10 µM | [2] > 10 µM | [3] > 10 µM | [4] > 10 µM | [5] > 10 µM | [6] > 10 µM | [7] > 10 µM | [8] > 10 µM | [9] > 10 µM | [10] > 10 µM | [11] > 10 µM | [12] > 10 µM | [13] > 10 µM | [14] > 10 µM | [15] > 10 µM | [16] > 10 µM | [17] > 10 µM | [18] > 10 µM | [19] > 10 µM

O=C1CSC(=S)N1c1ccc(F)cc1F
inactive: [1] > 100 µM | [2] 53.7 µM | [3] 25.6 µM | [4] > 100 µM | [5] > 100 µM | [6] 30.2 µM | [7] 90.8 µM | [8] 36.5 µM | [9] 40.9 µM | [10] 83.2 µM | [12] 58.3 µM | [13] 24.4 µM | [14] 72.9 µM | [15] 78.7 µM | [16] 25.4 µM | [17] > 100 µM | [18] > 100 µM | [19] 94.4 µM

O=C1Nc2ccc(Br)cc2/C1=N/N1C(=O)C(=O)N(C2CCCCC2)C1=S
inactive: [1] 5.46 µM | [2] 4.83 µM | [3] 2.21 µM | [4] 9.42 µM | [5] 2.92 µM | [6] 14.4 µM | [7] 2.75 µM | [8] 4.07 µM | [9] 1.64 µM | [10] 3.66 µM | [11] 9.75 µM | [13] 4.25 µM | [14] 10 µM | [15] 4.07 µM | [16] 4.34 µM | [17] 4.33 µM | [18] 3.56 µM | [19] 12.2 µM

O=C(CCCCCCCCC(=O)N1C(=O)CC(=O)N(c2cccc(Cl)c2)C1=S)N1C(=O)CC(=O)N(c2cccc(Cl)c2)C1=S
inactive: [1] 45.6 µM | [2] 46.2 µM | [3] 32.7 µM | [4] 89.7 µM | [5] 43.2 µM | [6] 20.5 µM | [7] 36.9 µM | [8] 47.1 µM | [9] 38.9 µM | [10] 45.9 µM | [11] 56.6 µM | [12] 34.9 µM | [13] 27.2 µM | [14] 44.9 µM | [16] 28.7 µM | [17] 42.6 µM | [19] 56.9 µM

CCCCCCCC1(N=[N+]=[N-])C(=O)Nc2ccccc2C1=O (centres undefined)
inactive: [1] 16.6 µM | [2] 14.4 µM | [3] 17.1 µM | [4] 14.9 µM | [5] 17.7 µM | [6] 13.6 µM | [7] 22.6 µM | [8] 13.3 µM | [9] 17.7 µM | [10] 21.4 µM | [11] 18.7 µM | [13] 25.5 µM | [14] 12.6 µM | [15] 16.1 µM | [16] 15.1 µM | [17] 15.7 µM | [18] 12.4 µM | [19] 17.2 µM
